# Patent US20230295197A1, “STAT5 and STAT6 Degraders and Uses Thereof” (REGENTS OF THE UNIVERSITY OF MICHICAN, priority 2022, published 2023)
# Like-named read-outs stand apart in the source and are kept apart here.
# Target: T1, STAT6 (Homo sapiens, UniProt P42226)
# T1 construct: endogenous in cells; host or cells: MOLM-16, KU-812, SKNO1, MB231, L1236
# T1 sequence (P42226 1-847): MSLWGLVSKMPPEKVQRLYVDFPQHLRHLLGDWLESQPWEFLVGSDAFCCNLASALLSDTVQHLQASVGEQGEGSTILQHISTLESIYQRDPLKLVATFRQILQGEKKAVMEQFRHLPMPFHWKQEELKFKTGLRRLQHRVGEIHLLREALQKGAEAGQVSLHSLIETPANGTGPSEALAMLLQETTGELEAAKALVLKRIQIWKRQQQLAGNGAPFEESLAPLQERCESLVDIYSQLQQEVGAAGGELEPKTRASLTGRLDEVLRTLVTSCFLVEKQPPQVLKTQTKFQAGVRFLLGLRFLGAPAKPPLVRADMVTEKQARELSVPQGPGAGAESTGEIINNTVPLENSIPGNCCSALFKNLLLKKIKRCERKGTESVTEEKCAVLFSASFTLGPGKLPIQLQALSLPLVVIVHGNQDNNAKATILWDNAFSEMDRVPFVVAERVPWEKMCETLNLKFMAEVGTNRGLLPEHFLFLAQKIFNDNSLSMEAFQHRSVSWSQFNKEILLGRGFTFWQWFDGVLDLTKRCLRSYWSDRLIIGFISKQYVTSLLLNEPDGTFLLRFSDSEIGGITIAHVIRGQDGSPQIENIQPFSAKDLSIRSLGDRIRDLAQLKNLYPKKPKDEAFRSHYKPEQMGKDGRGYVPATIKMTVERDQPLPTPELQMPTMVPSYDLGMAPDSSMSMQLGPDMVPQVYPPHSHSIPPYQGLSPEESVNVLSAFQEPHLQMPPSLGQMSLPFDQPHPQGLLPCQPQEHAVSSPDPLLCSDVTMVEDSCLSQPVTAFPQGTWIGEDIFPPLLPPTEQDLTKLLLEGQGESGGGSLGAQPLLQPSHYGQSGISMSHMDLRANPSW
# Test: Immunoblotting (Western blot) analysis of STAT6 degradation efficiency of degraders in treated cells
# Format: cell-based
# Method in brief: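 Treatment of cells with degraders at stated concentrations and exposure times comes first. Lysates are then equalised for total protein by BCA, and the proteins are separated, transferred and immunostained for STAT6 or STAT5 alongside GAPDH. Signal is quantified from infrared fluorescence.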
# [1] = L1236 cells, read-out: DC50 S6 L1236
# [2] = MOLM-16 cells, class symbols, read-out: DC50 S6 MOLM-16
SMILES,DC50 [1] [µM],DC50 [2] [µM],"DC50 (MOLM-16 cells, numeric bound, read-out: DC50 S6 MOLM-16) [µM]"
"Cc1ncsc1-c1ccc([C@H](C)NC(=O)[C@@H]2C[C@@H](O)CN2C(=O)[C@@H](NC(=O)CCCNC(=O)COc2ccc3c(c2)CN(C(=O)[C@@H](NC(=O)c2cc4cc(C(F)(F)P(=O)(O)O)ccc4s2)C(C)(C)C)[C@H](C(=O)N2CCO[C@H](c4ccccc4)C2)C3)C(C)(C)C)cc1 [Compound 463, (difluoro(2-(((S)-1-((S)-7-(2-((4-(((S)-1-((2S,4R)-4-hydroxy-2-(((S)-1-(4-(4-methylthiazol-5-yl)phenyl)ethyl)carbamoyl)pyrrolidin-1-yl)-3,3-dimethyl-1-oxobutan-2-yl)amino)-4-oxobutyl)amino)-2-oxoethoxy)-3-((R)-2-phenylmorpholine-4-carbonyl)-3,4-dihydroisoquinolin-2(1H)-yl)-3,3-dimethyl-1-oxobutan-2-yl)carbamoyl)benzo[b]thiophen-5-yl)methyl)phosphonic acid]",> 10,> 10,–
"Cc1ncsc1-c1ccc([C@H](C)NC(=O)[C@@H]2C[C@@H](O)CN2C(=O)[C@@H](NC(=O)CCNC(=O)COc2ccc3c(c2)CN(C(=O)[C@@H](NC(=O)c2cc4cc(C(F)(F)P(=O)(O)O)ccc4s2)C(C)(C)C)[C@H](C(=O)N2CCO[C@H](c4ccccc4)C2)C3)C(C)(C)C)cc1 [Compound 462, (difluoro(2-(((S)-1-((S)-7-(2-((3-(((S)-1-((2S,4R)-4-hydroxy-2-(((S)-1-(4-(4-methylthiazol-5-yl)phenyl)ethyl)carbamoyl)pyrrolidin-1-yl)-3,3-dimethyl-1-oxobutan-2-yl)amino)-3-oxopropyl)amino)-2-oxoethoxy)-3-((R)-2-phenylmorpholine-4-carbonyl)-3,4-dihydroisoquinolin-2(1H)-yl)-3,3-dimethyl-1-oxobutan-2-yl)carbamoyl)benzo[b]thiophen-5-yl)methyl)phosphonic acid]",> 10,> 10,–
"CC(C)(C)[C@H](NC(=O)c1cc2cc(C(F)(F)P(=O)(O)O)ccc2s1)C(=O)N1Cc2cc(OCC(=O)NCCCCCCCCCC#Cc3ccc4c(c3)C(=O)N(C3CCC(=O)NC3=O)C4=O)ccc2C[C@H]1C(=O)N1CCO[C@H](c2ccccc2)C1 (stereo partly drawn) [Compound 548, ((2-(((2S)-1-((3S)-7-(2-((11-(2-(2,6-dioxopiperidin-3-yl)-1,3-dioxoisoindolin-5-yl)undec-10-yn-1-yl)amino)-2-oxoethoxy)-3-((R)-2-phenylmorpholine-4-carbonyl)-3,4-dihydroisoquinolin-2(1H)-yl)-3,3-dimethyl-1-oxobutan-2-yl)carbamoyl)benzo[b]thiophen-5-yl)difluoromethyl)phosphonic acid]",–,> 10,–
"CC(C)(C)[C@H](NC(=O)c1cc2cc(C(F)(F)P(=O)(O)O)ccc2s1)C(=O)N1CCN(C(=O)CC(=O)NCCCCCCCCCC#Cc2ccc3c(c2)C(=O)N(C2CCC(=O)NC2=O)C3=O)C[C@H]1C(=O)N1CCC[C@H](c2ccccc2)C1 (stereo partly drawn) [Compound 534, ((2-(((2S)-1-((2S)-4-(3-((11-(2-(2,6-dioxopiperidin-3-yl)-1,3-dioxoisoindolin-5-yl)undec-10-yn-1-yl)amino)-3-oxopropanoyl)-2-((R)-3-phenylpiperidine-1-carbonyl)piperazin-1-yl)-3,3-dimethyl-1-oxobutan-2-yl)carbamoyl)benzo[b]thiophen-5-yl)difluoromethyl)phosphonic acid]",–,> 10,–
"CC(C)(C)[C@H](NC(=O)c1cc2cc(C(F)(F)P(=O)(O)O)ccc2s1)C(=O)N1C[C@H](OCCCCCC#Cc2ccc3c(c2)CN(C2CCC(=O)NC2=O)C3=O)C[C@H]1C(=O)N1CCC[C@H](c2ccccc2)C1 (stereo partly drawn) [Compound 603, ((2-(((2S)-1-((2S,4R)-4-((7-(2-(2,6-dioxopiperidin-3-yl)-1-oxoisoindolin-5-yl)hept-6-yn-1-yl)oxy)-2-((R)-3-phenylpiperidine-1-carbonyl)pyrrolidin-1-yl)-3,3-dimethyl-1-oxobutan-2-yl)carbamoyl)benzo[b]thiophen-5-yl)difluoromethyl)phosphonic acid]",–,–,> 0.3
"Cc1ncsc1-c1ccc([C@H](C)NC(=O)[C@@H]2C[C@@H](O)CN2C(=O)[C@@H](NC(=O)CNC(=O)CC(=O)N2CCN(C(=O)[C@@H](NC(=O)c3cc4cc(C(F)(F)P(=O)(O)O)ccc4s3)C(C)(C)C)[C@H](C(=O)N3CCC[C@H](c4ccccc4)C3)C2)C(C)(C)C)cc1 [Compound 452, (difluoro(2-(((S)-1-((S)-4-(3-((2-(((S)-1-((2S,4R)-4-hydroxy-2-(((S)-1-(4-(4-methylthiazol-5-yl)phenyl)ethyl)carbamoyl)pyrrolidin-1-yl)-3,3-dimethyl-1-oxobutan-2-yl)amino)-2-oxoethyl)amino)-3-oxopropanoyl)-2-((R)-3-phenylpiperidine-1-carbonyl)piperazin-1-yl)-3,3-dimethyl-1-oxobutan-2-yl)carbamoyl)benzo[b]thiophen-5-yl)methyl)phosphonic acid]",> 10,> 10,–
"Cc1cc([C@H](C(=O)N2C[C@H](O)C[C@H]2C(=O)N[C@@H](CC(=O)NCCOCCOCCNC(=O)CO[C@@H]2C[C@@H](C(=O)N(C)c3ccc(Br)cc3)N(C(=O)[C@@H](NC(=O)c3cc4cc(C(F)(F)P(=O)(O)O)ccc4s3)C(C)(C)C)C2)c2ccc(-c3scnc3C)cc2)C(C)C)on1 [Compound 424, ((2-(((S)-1-((2S,4R)-2-((4-bromophenyl)(methyl)carbamoyl)-4-(((S)-1-((2S,4R)-4-hydroxy-1-((R)-3-methyl-2-(3-methylisoxazol-5-yl)butanoyl)pyrrolidin-2-yl)-3-(4-(4-methylthiazol-5-yl)phenyl)-1,5,16-trioxo-9,12-dioxa-2,6,15-triazaheptadecan-17-yl)oxy)pyrrolidin-1-yl)-3,3-dimethyl-1-oxobutan-2-yl)carbamoyl)benzo[b]thiophen-5-yl)difluoromethyl)phosphonic acid]",–,> 10,–
"CC(C)(C)c1ccc(C[C@H](NC(=O)c2cc3cc(C(F)(F)P(=O)(O)O)ccc3s2)C(=O)N2C[C@@H](OCCCCCC(=O)N3Cc4cc5c(cc4C3)C(=O)N(C3CCC(=O)NC3=O)C5)C[C@H]2C(=O)N2CCO[C@H](c3ccccc3)C2)cc1 (stereo partly drawn) [Compound 591, ((2-(((2S)-3-(4-(tert-butyl)phenyl)-1-((2S,4S)-4-((6-(6-(2,6-dioxopiperidin-3-yl)-5-oxo-3,5,6,7-tetrahydropyrrolo[3,4-f]isoindol-2(1H)-yl)-6-oxohexyl)oxy)-2-((R)-2-phenylmorpholine-4-carbonyl)pyrrolidin-1-yl)-1-oxopropan-2-yl)carbamoyl)benzo[b]thiophen-5-yl)difluoromethyl)phosphonic acid]",–,> 10,–
"Cc1ncsc1-c1ccc([C@H](CC(=O)NCCCCCCC(=O)N[C@H]2C[C@@H](C(=O)N3CCO[C@H](c4ccccc4)C3)N(C(=O)[C@@H](NC(=O)c3cc4cc(C(F)(F)P(=O)(O)O)ccc4s3)C(C)(C)C)C2)NC(=O)[C@@H]2C[C@@H](O)CN2C(=O)[C@@H](NC(=O)C2(F)CC2)C(C)(C)C)cc1 [Compound 569, (difluoro(2-(((S)-1-((2S,4S)-4-(7-((S)-3-((2S,4R)-1-((S)-2-(1-fluorocyclopropane-1-carboxamido)-3,3-dimethylbutanoyl)-4-hydroxypyrrolidine-2-carboxamido)-3-(4-(4-methylthiazol-5-yl)phenyl)propanamido)heptanamido)-2-((R)-2-phenylmorpholine-4-carbonyl)pyrrolidin-1-yl)-3,3-dimethyl-1-oxobutan-2-yl)carbamoyl)benzo[b]thiophen-5-yl)methyl)phosphonic acid]",–,> 10,–
"Cc1ncsc1-c1ccc([C@H](C)NC(=O)[C@@H]2C[C@@H](O)CN2C(=O)[C@@H](NC(=O)CCCCCNC(=O)COc2ccc3c(c2)CN(C(=O)[C@@H](NC(=O)c2cc4cc(C(F)(F)P(=O)(O)O)ccc4s2)C(C)(C)C)[C@H](C(=O)N2CCC[C@H](c4ccccc4)C2)C3)C(C)(C)C)cc1 [Compound 474, (difluoro(2-(((S)-1-((S)-7-(2-((6-(((S)-1-((2S,4R)-4-hydroxy-2-(((S)-1-(4-(4-methylthiazol-5-yl)phenyl)ethyl)carbamoyl)pyrrolidin-1-yl)-3,3-dimethyl-1-oxobutan-2-yl)amino)-6-oxohexyl)amino)-2-oxoethoxy)-3-((R)-3-phenylpiperidine-1-carbonyl)-3,4-dihydroisoquinolin-2(1H)-yl)-3,3-dimethyl-1-oxobutan-2-yl)carbamoyl)benzo[b]thiophen-5-yl)methyl)phosphonic acid]",–,> 10,–
